Source: PubChem BioAssay AID248 (DTP/NCI, 2004)
Values joined by “and” are separate entries in the source; they are usually repeats but may differ in a detail not shown here. Identical values can stand only once. Toxic doses and inconclusive results are not listed. Rule as the data show it: active = T/C of 150% or more; inactive = T/C below 125%. Square brackets hold non-standard residues; d marks the D form. Peptide text beside a SMILES is read from it. * marks the point of attachment. ξ: configuration not given here. Cbz = O=C(OCc1ccccc1)*; ξS = NC(CO)C(=O)O

Test system: L1210 leukemia ip in BDF1 mice, survival T/C
Assay: NCI In Vivo Anticancer Drug Screen. Data for tumor model L1210 Leukemia (intraperitoneal) in B6D2F1 (BDF1) mice
Settings: endpoint: mean survival time, higher = longer survival
How it was run: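 Transplanted-tumor mice were given test agent; controls received vehicle only. Survival readings from the two groups were divided (treated over control).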

[1] = dose: 100.0 mg/kg/injection, schedule: Q04DX002 (ip), vehicle: Klucel (hydroxypropylcellulose) (HPC)
[2] = dose: 100.0 mg/kg/injection, schedule: Q01DX001 (ip), vehicle: saline
[3] = dose: 200.0 mg/kg/injection, schedule: Q01DX001 (ip), vehicle: saline
[4] = dose: 400.0 mg/kg/injection, schedule: Q01DX001 (ip), vehicle: saline
[5] = dose: 50.0 mg/kg/injection, schedule: Q01DX001 (ip), vehicle: carboxymethylcellulose (CMC)
[6] = dose: 50.0 mg/kg/injection, schedule: Q04DX003 (ip), vehicle: carboxymethylcellulose (CMC)
[7] = dose: 100.0 mg/kg/injection, schedule: Q01DX001 (ip), vehicle: carboxymethylcellulose (CMC)
[8] = dose: 100.0 mg/kg/injection, schedule: Q01DX009 (ip), vehicle: carboxymethylcellulose (CMC)
[9] = dose: 100.0 mg/kg/injection, schedule: Q04DX002 (ip), vehicle: carboxymethylcellulose (CMC)
[10] = dose: 100.0 mg/kg/injection, schedule: Q04DX003 (ip), vehicle: carboxymethylcellulose (CMC)
[11] = dose: 200.0 mg/kg/injection, schedule: Q01DX001 (ip), vehicle: carboxymethylcellulose (CMC)
[12] = dose: 200.0 mg/kg/injection, schedule: Q01DX009 (ip), vehicle: carboxymethylcellulose (CMC)
[13] = dose: 200.0 mg/kg/injection, schedule: Q04DX002 (ip), vehicle: carboxymethylcellulose (CMC)
[14] = dose: 200.0 mg/kg/injection, schedule: Q04DX003 (ip), vehicle: carboxymethylcellulose (CMC)
[15] = dose: 100.0 mg/kg/injection, schedule: Q04DX003 (ip), vehicle: saline with Tween-80
[16] = dose: 200.0 mg/kg/injection, schedule: Q04DX003 (ip), vehicle: saline with Tween-80
[17] = dose: 400.0 mg/kg/injection, schedule: Q04DX003 (ip), vehicle: saline with Tween-80
[18] = dose: 75.0 mg/kg/injection, schedule: Q01DX001 (ip), vehicle: carboxymethylcellulose (CMC)
[19] = dose: 150.0 mg/kg/injection, schedule: Q01DX001 (ip), vehicle: carboxymethylcellulose (CMC)

Measured: T/C

C=CCNC(=S)Nc1ccccc1C=O
inactive: dose: 25.0 mg/kg/injection, schedule: Q04DX002 (ip), vehicle: Klucel (hydroxypropylcellulose) (HPC) 100 % of control | dose: 50.0 mg/kg/injection, schedule: Q04DX002 (ip), vehicle: Klucel (hydroxypropylcellulose) (HPC) 106 % of control | [1] 110 % of control and 90 % of control

CNN1CCOC1=O
inactive: dose: 100.0 mg/kg/injection, schedule: Q04DX002 (ip), vehicle: saline 100 % of control | dose: 200.0 mg/kg/injection, schedule: Q04DX002 (ip), vehicle: saline 100 % of control | dose: 400.0 mg/kg/injection, schedule: Q04DX002 (ip), vehicle: saline 104 % of control

CCCCc1c(C)nc(N)[nH]c1=O
inactive: [1] 104 % of control | dose: 200.0 mg/kg/injection, schedule: Q04DX002 (ip), vehicle: Klucel (hydroxypropylcellulose) (HPC) 100 % of control | dose: 400.0 mg/kg/injection, schedule: Q04DX002 (ip), vehicle: Klucel (hydroxypropylcellulose) (HPC) 100 % of control

CC(=O)Nc1ccc(S(=O)(=O)Oc2ccc([N+](=O)[O-])cc2)cc1
inactive: dose: 25.0 mg/kg/injection, schedule: Q01DX009 (ip), vehicle: saline 94 % of control | dose: 50.0 mg/kg/injection, schedule: Q01DX009 (ip), vehicle: saline 96 % of control | dose: 100.0 mg/kg/injection, schedule: Q01DX009 (ip), vehicle: saline 94 % of control | dose: 400.0 mg/kg/injection, schedule: Q01DX009 (ip), vehicle: saline 100 % of control

CCCCCCCCCCCc1n(Cc2ccccc2)cc[n+]1C
inactive: dose: 0.5 mg/kg/injection, schedule: Q01DX001 (ip), vehicle: saline 101 % of control | dose: 0.5 mg/kg/injection, schedule: Q01DX009 (ip), vehicle: acetone 111 % of control | dose: 1.0 mg/kg/injection, schedule: Q01DX001 (ip), vehicle: saline 95 % of control | dose: 1.0 mg/kg/injection, schedule: Q01DX009 (ip), vehicle: acetone 118 % of control | dose: 2.0 mg/kg/injection, schedule: Q01DX001 (ip), vehicle: saline 101 % of control | dose: 2.0 mg/kg/injection, schedule: Q04DX003 (ip), vehicle: saline 95 % of control | dose: 8.0 mg/kg/injection, schedule: Q01DX001 (ip), vehicle: saline 103 % of control

COc1cc2c(cc1OC)C(Cc1cc3c(cc1[N+](=O)[O-])OCO3)=NCC2
inactive: [2] 96 % of control | [3] 96 % of control | [4] 93 % of control

CCCCCCOC(=O)Nc1ccc(S(=O)(=O)NC2CCCCC2)cc1
inactive: [2] 94 % of control | [3] 90 % of control | [4] 95 % of control

COc1ccc(OCC(=O)N2CCCCCC2)cc1
inactive: [5] 100 % of control | dose: 50.0 mg/kg/injection, schedule: Q01DX009 (ip), vehicle: carboxymethylcellulose (CMC) 94 % of control | [6] 103 % of control | [7] 106 % of control | [8] 94 % of control and 96 % of control | [9] 91 % of control | [10] 100 % of control | [11] 109 % of control | [12] 97 % of control and 100 % of control | [13] 105 % of control | [14] 102 % of control | dose: 400.0 mg/kg/injection, schedule: Q04DX002 (ip), vehicle: carboxymethylcellulose (CMC) 96 % of control

O=C(O)C(C(=O)c1cccc([N+](=O)[O-])c1)C(=O)c1cccc([N+](=O)[O-])c1
inactive: [11] 100 % of control | dose: 400.0 mg/kg/injection, schedule: Q01DX001 (ip), vehicle: carboxymethylcellulose (CMC) 94 % of control

OC1(c2ccc(F)cc2)c2ccccc2-c2ccccc21
inactive: dose: 75.0 mg/kg/injection, schedule: Q01DX001 (ip), vehicle: other 96 % of control | dose: 150.0 mg/kg/injection, schedule: Q01DX001 (ip), vehicle: other 96 % of control

CC(=O)C12OC1CC1C3CCC4=CC(=O)CCC4(C)C3CC(=O)C12C (configuration not stated)
inactive: dose: 75.0 mg/kg/injection, schedule: Q01DX009 (ip), vehicle: carboxymethylcellulose (CMC) 94 % of control | dose: 150.0 mg/kg/injection, schedule: Q01DX009 (ip), vehicle: carboxymethylcellulose (CMC) 107 % of control | dose: 300.0 mg/kg/injection, schedule: Q01DX009 (ip), vehicle: carboxymethylcellulose (CMC) 105 % of control

CCCN(CCC)C(=O)c1cccnc1
inactive: [15] 93 % of control | [16] 96 % of control | [17] 94 % of control

Cc1ccc(C(O)(c2ccc(C)cc2)C2C(c3ccccc3)N2C)cc1 (configuration not stated)
inactive: dose: 100.0 mg/kg/injection, schedule: Q01DX001 (ip), vehicle: Klucel (hydroxypropylcellulose) (HPC) 98 % of control | dose: 200.0 mg/kg/injection, schedule: Q01DX001 (ip), vehicle: Klucel (hydroxypropylcellulose) (HPC) 96 % of control | dose: 400.0 mg/kg/injection, schedule: Q01DX001 (ip), vehicle: Klucel (hydroxypropylcellulose) (HPC) 102 % of control

Cc1ccc(-n2c(=S)[nH]c3ccccc3c2=O)cc1F
inactive: [15] 94 % of control | [16] 93 % of control | [17] 89 % of control

O=S(=O)(Nc1nccs1)c1ccc(N=Nc2ccc(O)c3ncccc23)cc1
inactive: [3] 102 % of control | [4] 101 % of control

CN(C)CCS(=O)(=O)CCc1ccccc1
inactive: [18] 106 % of control | [19] 98 % of control | dose: 300.0 mg/kg/injection, schedule: Q01DX001 (ip), vehicle: carboxymethylcellulose (CMC) 101 % of control

Cc1ccc(S(=O)(=O)N2CCc3ccccc3C(=O)C2)cc1
inactive: [2] 97 % of control | [3] 94 % of control | [4] 94 % of control

Clc1ccc(/C=C/c2cccc(/C=C/c3ccc(Cl)cc3)n2)cc1
inactive: dose: 100.0 mg/kg/injection, schedule: Q04DX003 (ip), vehicle: Klucel (hydroxypropylcellulose) (HPC) 96 % of control | dose: 200.0 mg/kg/injection, schedule: Q04DX003 (ip), vehicle: Klucel (hydroxypropylcellulose) (HPC) 97 % of control | dose: 400.0 mg/kg/injection, schedule: Q04DX003 (ip), vehicle: Klucel (hydroxypropylcellulose) (HPC) 97 % of control

O=C(Nc1ccc(F)cc1)Nc1cccc(O)c1
inactive: [5] 106 % of control | dose: 50.0 mg/kg/injection, schedule: Q04DX002 (ip), vehicle: carboxymethylcellulose (CMC) 97 % of control and 98 % of control | [6] 101 % of control | [7] 103 % of control | [8] 92 % of control and 101 % of control | [9] 94 % of control and 95 % of control and 98 % of control | [10] 102 % of control | [11] 96 % of control | [12] 98 % of control | [13] 95 % of control and 101 % of control and 90 % of control | [14] 98 % of control | dose: 400.0 mg/kg/injection, schedule: Q01DX009 (ip), vehicle: carboxymethylcellulose (CMC) 98 % of control and 103 % of control

CC1(C)C[N+](C)(Cc2ccccc2)C1
inactive: [15] 101 % of control

CCCC(CC(=O)O)OC (configuration not stated)
inactive: [2] 103 % of control | [3] 110 % of control | [4] 110 % of control

Clc1cc(CBr)c(Cl)c(Cl)c1CBr
inactive: dose: 6.25 mg/kg/injection, schedule: Q01DX009 (ip), vehicle: saline sonified 94 % of control | dose: 6.25 mg/kg/injection, schedule: Q04DX003 (ip), vehicle: Klucel (hydroxypropylcellulose) (HPC) 97 % of control | dose: 12.5 mg/kg/injection, schedule: Q01DX009 (ip), vehicle: saline sonified 94 % of control | dose: 12.5 mg/kg/injection, schedule: Q04DX003 (ip), vehicle: Klucel (hydroxypropylcellulose) (HPC) 91 % of control | dose: 25.0 mg/kg/injection, schedule: Q01DX009 (ip), vehicle: saline sonified 91 % of control | dose: 25.0 mg/kg/injection, schedule: Q04DX003 (ip), vehicle: Klucel (hydroxypropylcellulose) (HPC) 98 % of control

COC(=O)C(CO)NC(=O)CNC(=O)OCc1ccccc1 (stereo not drawn) (Cbz-Gly-[ξS]-OMe)
inactive: dose: 100.0 mg/kg/injection, schedule: Q04DX003 (ip), vehicle: water 98 % of control | dose: 200.0 mg/kg/injection, schedule: Q04DX003 (ip), vehicle: water 94 % of control | dose: 400.0 mg/kg/injection, schedule: Q04DX003 (ip), vehicle: water 96 % of control

CCNC(=O)Nc1ncn[nH]1
inactive: [18] 102 % of control | [19] 98 % of control
